The record followed here is patent publication US8263587B2, “Benzoxazepine compounds, their preparation and use” (Piramal Healthcare Limited, priority 2006, dated 2012).

One series deals with T1, hPPARα (Homo sapiens, UniProt Q07869).
T1 construct: expressed in transfected cells; host or cells: CV-1 cells
T1 sequence (Q07869 1-468): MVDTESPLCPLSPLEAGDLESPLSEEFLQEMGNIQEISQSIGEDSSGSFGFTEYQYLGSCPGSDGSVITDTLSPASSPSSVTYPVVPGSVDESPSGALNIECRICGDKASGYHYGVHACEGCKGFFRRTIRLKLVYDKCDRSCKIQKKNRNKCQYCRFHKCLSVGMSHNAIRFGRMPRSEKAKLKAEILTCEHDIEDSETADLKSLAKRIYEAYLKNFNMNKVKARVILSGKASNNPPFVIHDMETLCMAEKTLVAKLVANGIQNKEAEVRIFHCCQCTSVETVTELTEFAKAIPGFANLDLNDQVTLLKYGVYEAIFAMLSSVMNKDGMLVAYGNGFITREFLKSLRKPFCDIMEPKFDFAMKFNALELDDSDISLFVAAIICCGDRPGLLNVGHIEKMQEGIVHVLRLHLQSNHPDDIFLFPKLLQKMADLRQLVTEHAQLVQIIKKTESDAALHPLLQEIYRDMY
Put plainly: hPPARα transactivation in cell-based assay (CV-1 cells, luciferase). As for the experimental part: (§1) Cell based transcription assay was employed to identify hPPAR γ/α agonists. CV-1 cells were maintained in MEM (minimum essential medium) containing 10% FBS (fetal bovine serum). Cells were seeded at a density of 80,000 cells/well in a 24-well plate one day prior to transfection. CV-1 cells were transiently transfected with hPPAR γ/α using Lipofectamine 2000. […] Receptor activation by ligands leads to activation of luciferase expression, which was measured after 15-16 h incubation. The cells were washed with PBS, lysed, and luciferase activity measured in a microplate luminometer. […] Both compounds were synthesized in-house. Maximum activation with the reference agonists was defined as 100%. Receptor activation by test compounds is presented as percentage of maximum activation caused by the respective reference agonists in Table 4(a), Table 4(b) and Table 4(c).

The test system of series [1] is isolated rat hepatocytes. Put plainly: LDH leakage from isolated rat hepatocytes. It is filed as cell-based. Conditions: one entry 'No leakage' for all concentrations tested of the compound (up to 100 μM). As for the experimental part: (§2) The assay was done in three groups: basal, control and test. The test compounds were added to the vials at different concentrations. The isolated hepatocytes were added to the vials and they were incubated at 37° C. for 15 min. After 15 min, 5 mM fructose (precursor for gluconeogenesis) was added to the control and test group. Vials were again incubated at 37° C. for one hour with constant shaking (80 cycles/min.). Incubation was terminated by centrifuging the reaction mixture at 3000 rpm for 5 min. The supernatant was used for determination of both glucose and lactate dehydrogenase (LDH) (Table 1).
The LDH activity is measured, by the method described in Meth. Enz. Ana. 3, 118-125, 1984, the disclosure of which is incorporated by reference for the teaching of the method, as the amount of pyruvate consumed by continuously monitoring the decrease in absorbance due to oxidation of NADH (Nicotinamide Adenine Dinucleotide-reduced form) at 339 nm.
In general terms: Release of lactate dehydrogenase indicates damage to the cell membrane.

Another series addresses T2, hPPARγ (Homo sapiens, UniProt P37231).
T2 construct: expressed in transfected cells; host or cells: CV-1 cells
T2 sequence (P37231 1-505): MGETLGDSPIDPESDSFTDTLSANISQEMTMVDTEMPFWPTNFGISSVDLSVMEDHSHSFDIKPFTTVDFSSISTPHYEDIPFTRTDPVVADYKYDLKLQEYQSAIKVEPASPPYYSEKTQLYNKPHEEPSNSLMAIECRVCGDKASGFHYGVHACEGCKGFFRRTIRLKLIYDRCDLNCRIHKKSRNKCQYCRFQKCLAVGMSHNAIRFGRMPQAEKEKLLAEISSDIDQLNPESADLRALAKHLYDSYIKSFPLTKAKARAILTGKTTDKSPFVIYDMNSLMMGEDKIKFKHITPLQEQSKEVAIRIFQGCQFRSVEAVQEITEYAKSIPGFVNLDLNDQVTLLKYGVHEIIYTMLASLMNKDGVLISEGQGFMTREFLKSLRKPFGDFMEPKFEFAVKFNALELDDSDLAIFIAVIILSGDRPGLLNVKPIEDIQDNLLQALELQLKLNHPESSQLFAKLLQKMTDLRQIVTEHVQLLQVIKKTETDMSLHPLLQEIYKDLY
Put plainly: hPPARγ transactivation in cell-based assay (CV-1 cells, luciferase). The procedure:
as §1

Series [2] relates to isolated rat hepatocytes. Put plainly: Inhibition of gluconeogenesis in isolated rat hepatocytes. It is filed as cell-based. Conditions: Rattus norvegicus, Hepatocyte, 5 mM fructose, read-out: Gluconeogenesis (glucose production) % inhibition. As for the experimental part:
Assay protocol for determination of inhibition of gluconeogenesis by compounds in isolated rat hepatocytes:
Hepatocytes were isolated by collagenase digestion of perfused livers from male Wistar rats fasted overnight according to the method described in J. Cell. Science., 56, 233-244, 1982, the disclosure of which is incorporated by reference for the teaching of the method.
as §2
An active compound would decrease the amount of glucose formed, which is read at 520 nm by glucose oxidase-peroxidase method.

As usually defined, the inhibition is the percentage by which the read-out fell short of the control. Take `O=C1NC(=O)C(Cc2ccc3c(c2)CN(c2nc4ccccc4o2)CCO3)S1` (centres unmarked) [Compound of Example 7, 5-(4-Benzooxazol-2-yl-2,3,4,5-tetrahydro-benzo[f][1,4]oxazepin-7-yl-methyl)-thiazolidine-2,4-dione]: the “PPARα (Fold activation at 20 μM)” value at hPPARα (20 μM, CV-1 cells transfected with hPPARα) came to 1.5 fold. Moreover, the Emax at 20 µM at hPPARα (CV-1, read-out: PPARα activation as percentage of maximum activation by Wy-14643) stood at 47%. Also, the LDH % leakage result in the series with isolated rat hepatocytes [1] is given as “No”. Further, the “PPARγ (Fold activation at 1 μM)” value on hPPARγ (1 μM, CV-1 cells transfected with hPPARγ) worked out at 0.7 fold. Also, the Emax at 1 µM on hPPARγ (CV-1, read-out: PPARγ activation as percentage of maximum activation by rosiglitazone) was determined as 9%. In addition, the inhibition at 3 µM in the series on isolated rat hepatocytes [2] (3 μM) worked out at 12%. Moreover, the inhibition at 30 µM in the series on isolated rat hepatocytes [2] (30 μM) was determined as 19%. Besides, the inhibition at 100 µM with isolated rat hepatocytes [2] (100 μM) was determined as 50%.
